Laboratory results as given in patent US8367682B2, “Pyrimidine derivatives and their use as pesticides” (Novartis AG, priority 2006, dated 2013).

How the values were obtained:
[1] = test system: Rhipicephalus sanguineus nymphs; experiment: In-vivo test against Rhipicephalus sanguineus nymphs on Mongolian gerbils; details: for % reduction of number of ticks: spray (or spot-on) on gerbils, vs placebo group, Abbot's formula
Protocol: 4. In-Vivo Test Against Rhipicephalus sanquineus Nymphs on Mongolian Gerbils (Meriones unguiculatus)
On day 0, gerbils are treated with the test compound at a given dose by spray (or spot-on) application. On day +1 (+2), the animals are infested with nymphs of R. sanguineus. Ticks are left on the animals until full repletion. Seven days after infestation nymphs dropped off fully engorged are collected and counted. They are kept until molting to also evaluate growth regulating activity of the test compound. Efficacy in killing (and growth regulating) is expressed as a tick number (and molted tick number) reduction in comparison with a placebo treated group, using the Abbot's formula. A tick number reduction of more than 60%, in particular more than 70%, is regarded as a minimum prerequisite for a commercial development of a compound. In addition, said killing efficacy should be put into practice with the minimal dose for safety and environmental reasons.

Ctenocephalides felis = experiment: Activity in vitro against Ctenocephalides felis (cat flea), HTS, artificial blood feeding; details: in this test; adult fleas; concentration not given
Protocol: 3. Activity in Vitro Against Ctenocephalides felis (Cat Flea)—HTS
A mixed adult population of fleas is placed in a suitably formatted 96-well plate allowing fleas to access and feed on treated blood via an artificial feeding system. Each compound is tested by serial dilution in order to determine its MED. Fleas are fed on treated blood for 24 hours, after which the compound's effect is recorded. Insecticidal activity is determined on the basis of the number of dead fleas recovered from the feeding system.

Rhipicephalus sanguineus = experiment: Activity in vitro against Rhipicephalus sanguineus (dog ticks), HTS; details: in this test; adult ticks; concentration not given
Protocol: 2. Activity in Vitro Against Rhipicephalus sanguineus (Dog Ticks)—HTS
A clean adult tick population is used to seed a suitably formatted 96-well plate containing the test substances to be evaluated for antiparasitic activity. Each compound is tested by serial dilution in order to determine its MED. Ticks are left in contact with the test compound for 10 minutes and are then incubated at 28° C. and 80% relative humidity (RH) for 7 days, during which the test compound's effect is monitored. Acaricidal activity is confirmed if and when adult ticks are dead.

| Compound | % reduction of number of ticks ([1]; dose 3.2 mg/kg) [%] | % reduction of number of ticks ([1]; dose 10 mg/kg) [%] | other results |
| --- | --- | --- | --- |
| Nc1c(Oc2ccc(F)c(C(F)(F)F)c2)nc(-c2ccccc2)nc1Oc1ccc(F)c(C(F)(F)F)c1 [2-phenyl-4,6-bis-(4-fluoro-3-[trifluoromethyl]phenoxy)-5-amino-pyrimidine] |  |  | killing efficacy ([1]; at these low concentrations (doses of the table, 3.2-10 mg/kg)): No significant killing efficacy; insecticidal efficacy (Ctenocephalides felis): does not show any significant insecticidal efficacy; acaricidal efficacy (Rhipicephalus sanguineus): does not show any significant acaricidal efficacy |
| CN(C)c1cccc(-c2nc(Oc3ccc(F)c(C(F)(F)F)c3)c(N)c(Oc3ccc(F)c(C(F)(F)F)c3)n2)c1 [Compound 1.34, 2-(3-Dimethylamino-phenyl)-4,6-bis-(4-fluoro-3-trifluoromethyl-phenoxy)-pyrimidin-5-ylamine] | 85 |  |  |
| Cc1cc(-c2nc(Oc3ccc(F)c(C(F)(F)F)c3)c(N)c(Oc3ccc(F)c(C(F)(F)F)c3)n2)ccc1F [Compound 1.23] |  | 99 |  |
| COc1cccc(-c2nc(Oc3ccc(F)c(C(F)(F)F)c3)c(N)c(Oc3ccc(F)c(C(F)(F)F)c3)n2)c1 [Compound 1.7] | 91 |  |  |
| CC(O)c1cccc(-c2nc(Oc3ccc(F)c(C(F)(F)F)c3)c(N)c(Oc3ccc(F)c(C(F)(F)F)c3)n2)c1 (stereo not shown) [Compound 1.18] |  | 85 |  |
| CC(C)c1cccc(-c2nc(Oc3ccc(F)c(C(F)(F)F)c3)c(N)c(Oc3ccc(F)c(C(F)(F)F)c3)n2)c1 [Compound 1.10] |  | 81 |  |
| Nc1c(Oc2ccc(F)c(C(F)(F)F)c2)nc(-c2cccc(N3CCOCC3)c2)nc1Oc1ccc(F)c(C(F)(F)F)c1 [Compound 1.30] | 79 |  |  |
| COCc1cccc(-c2nc(Oc3ccc(F)c(C(F)(F)F)c3)c(N)c(Oc3ccc(F)c(C(F)(F)F)c3)n2)c1 [Compound 1.27] | 78 |  |  |
| Cn1ccc2ccc(-c3nc(Oc4ccc(F)c(C(F)(F)F)c4)c(N)c(Oc4ccc(F)c(C(F)(F)F)c4)n3)cc21 [Compound 2.2] | 89 |  |  |
| Nc1c(Oc2ccc(F)c(C(F)(F)F)c2)nc(-c2ccc3cc[nH]c3c2)nc1Oc1ccc(F)c(C(F)(F)F)c1 [Compound 2.3] | 81 |  |  |
| Cc1cccc(-c2nc(Oc3ccc(F)c(C(F)(F)F)c3)c(N)c(Oc3ccc(F)c(C(F)(F)F)c3)n2)c1 [Compound 1.9] |  | 74 |  |
